Test results taken from PubChem BioAssay (NCI).
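Briefly, cells in 96-well plates were exposed to five compound concentrations for 48 h, and endpoints were estimated by linear interpolation. TGI denotes the concentration required for complete inhibition of growth.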

Legend:
Assay in all cases: DTP human tumour cell line panel, 48 h
[1] = tested on: UO-31 renal
[2] = tested on: HT29 colon
[3] = tested on: SK-MEL-5 melanoma
[4] = tested on: SK-OV-3 ovarian
[5] = tested on: RXF-631 renal
[6] = tested on: DMS 273 small cell lung
[7] = tested on: OVCAR-8 ovarian
[8] = tested on: KM20L2 colon
[9] = tested on: A549 NSCLC
[10] = tested on: NCI-H23 lung
[11] = tested on: OVCAR-3 ovarian
[12] = tested on: MALME-3M melanoma
[13] = tested on: LOX IMVI melanoma
[14] = tested on: ACHN renal
[15] = tested on: RXF 393 renal
[16] = tested on: EKVX NSCLC
[17] = tested on: DLD-1 colon
[18] = tested on: HOP-62 NSCLC
[19] = tested on: OVCAR-4 ovarian
[20] = tested on: SNB-19 CNS
[21] = tested on: XF 498 CNS
[22] = tested on: SF-295 CNS
[23] = tested on: HOP-18 NSCLC
[24] = tested on: HCT-116 colon
[25] = tested on: M14 melanoma
[26] = tested on: UACC-257 melanoma
[27] = tested on: U251 CNS
[28] = tested on: HCT-15 colon
[29] = tested on: CAKI-1 renal
[30] = tested on: NCI-H460 lung
[31] = tested on: UACC-62 melanoma
[32] = tested on: HOP-92 NSCLC
[33] = tested on: SK-MEL-2 melanoma
[34] = tested on: RPMI-8226 leukemia
[35] = tested on: DMS 114 small cell lung
[36] = tested on: M19-MEL melanoma
[37] = tested on: SN12C renal
[38] = tested on: SK-MEL-28 melanoma
[39] = tested on: SNB-75 CNS
[40] = tested on: SNB-78 CNS
[41] = tested on: TK-10 renal
[42] = tested on: SW-620 colon
[43] = tested on: COLO 205 colon
[44] = tested on: IGROV1 ovarian
[45] = tested on: HL-60(TB) leukemia
[46] = tested on: NCI-H226 lung
[47] = tested on: A498 renal
[48] = tested on: OVCAR-5 ovarian
[49] = tested on: SR leukemia
[50] = tested on: MOLT-4 leukemia
[51] = tested on: HCC-2998 colon
[52] = tested on: K-562 leukemia
[53] = tested on: LXFL 529 NSCLC
[54] = tested on: 786-0 renal
[55] = tested on: KM12 colon
[56] = tested on: CCRF-CEM leukemia
[57] = tested on: NCI-H522 lung
[58] = tested on: SF-539 CNS
[59] = tested on: SF-268 CNS

Measured: TGI

COc1ccc(C2C(C(=O)O)=C(CO)Oc3cc4c(cc32)OCO4)cc1 (centres undefined)
not listed: [45] | [46] | [47] | [48] | [49] | [50] | [51] | [52] | [53] | [54] | [55] | [56] | [57] | [58] | [59]
> 100 µM: all other assays above

CC1(n2nc(-c3ccccc3)n(-c3ccccc3)c2=O)CSC1
not listed: [5] | [11] | [12] | [23]
> 100 µM: all other assays above
